For ten molecules, EC50 results are on record in patent US9388124B2, “Ingenol-3-acylates I” (LEO LABORATORIES LIMITED, priority 2010, dated 2016).

Read-outs that look alike come from different tables or passages of the source. Where only a bound is given, the exact number is not on record here.

Type in all cases: cell-based
Test [1] concerns Primary human epidermal keratinocytes, HeKa. In words: HeKa cytokine release (IL-8) assay. The procedure: HeKa Cytokine Release (IL-8) Assay:
Primary human epidermal keratinocytes, HeKa, were seeded (10.000 cells/well) in 96-well plates the day before the assay. Test compounds were diluted in DMSO (dimethyl sulfoxide) and further diluted in assay medium and pipetted into wells of 96 well-plates containing HeKa cells. The plates were incubated for 6 h at 37° C. in humidified air with 5% CO2. Plates were centrifuged briefly to spin down cells at 4° C., the supernatant was removed and analysed by Meso Scale Discovery (MSD) 4-spot cytokine assay (Pro-inflammatory II Ultra Sensitive kit, MSD, MD, USA). The MSD assay employs a sandwich immunoassay format where capture antibodies are coated in a patterned array on the bottom of the wells of a 4-Spot-Multi-MSD plate. Standard samples were incubated in the MULTI-SPOT plates as well, and the cytokine (IL-8) binds to its corresponding capture antibody spot. The cytokine level was quantitated on a SECTOR™ Imager using a cytokine-specific Detection Antibody labelled with MSD SULFO-TAG™ reagent.
Test compound titration curves were fitted to a four-parameter sigmoidal curve after normalizing the effect of the test compound to the effect of the positive control (1.5×10^−7 M PEP0005). Rel EC50 denotes the concentration of test compound producing an effect that is midway between the fitted top and bottom.

The test system of a further test is HeLa cells. In words: Necrosis assay. As to conditions: Homo sapiens, 0.5 h, read-out: HeLa Necrosis EC50 range. The procedure: HeLa cells (ATCC CCL-002) were grown in minimal essential medium (Invitrogen catalog no. 42360) containing 10% fetal bovine serum, 100 IU/ml penicillin and 100 μg/ml streptomycin. 4,000-6,000 cells were seeded into 96-well black ViewPlates-plates, clear bottom, (Perkin Elmer) in 100 μl medium and incubated overnight. Compounds were dissolved and pre-diluted in DMSO in 96-well polypropylene plates (Greiner) in a concentration range of 15 μM to 600 μM. At the time of the experiment cell plates were placed on heating blocks at 37° C., medium was removed and 40 μl fresh, pre-warmed medium was added per well. Cells were incubated for 15 min before addition of compounds. In parallel, 3 μl of compounds were diluted with 197 μl growth medium on a Tecan freedom-EVO pipetting station using 250 μl/s pipetting speed, in order to ensure effective mixing of the highly concentrated compound solutions with the aqueous phase. These pre-dilution plates were then equilibrated on heating blocks at 37° C. for 10 min. 80 μl pre-diluted compound were transferred manually to the corresponding wells containing HeLa cells yielding compound concentrations of 10 μM to 400 μM. Control conditions were 1% DMSO in growth medium (100% viability) and 400 μM ingenol mebutate in growth medium (0% viability). Plates were incubated on the heating blocks at 37° C. for 30 min. At the end of the incubation 10 μl PrestoBlue reagent (Invitrogen) were added to each well, plates were sealed with black seal, followed by incubation at 37° C. for 10 min with gentle shaking (150 rpm). Subsequently, plates were placed at room temperature for 20-30 min. Plates were read immediately after on an Envision Fluorescence reader (Perkin Elmer) with excitation at 535 nm and emission at 630 nm. Test compound titration curves were fitted to a four-parameter sigmoidal curve after normalizing the effect of the test compound to the effect of the positive control (4 10^−4 M PEP0005/ingenol mebutate). AbsEC50 denotes the concentration of test compound producing 50% effect.

The subject of test [2] is PMN's (polymorphonuclear leukocytes). In words: Neutrophil oxidative burst assay. The note with it: Leukocyte, 40 min, read-out: Neutrophil oxidative burst Rel EC50 range. The procedure:
Neutrophil Oxidative Burst Assay:
PMN's (polymorphonuclear leukocytes) were isolated and purified from fresh buffy coats by sequential sedimentation, density centrifugation and lysis of contaminating erythrocytes. Buffy coats were incubated with 2% methocel for 30-45 min to differentially sediment red blood cells. The leukocyte-rich supernatant was transferred to lymphoprep tubes to remove mononuclear cells by density centrifugation (400×g, 30 min). The pellet was resuspended and any remaining erythrocytes lysed using 0.2% NaCl for 30 sec before restoring isotonicity by the addition of 1.2% NaCl. This step was repeated until the cell pellet appears relatively free of red blood cells. Cells were resuspended in DPBS (Dulbecco's Phosphate Buffered Saline) (w.o. Ca^2+, Mg^2+) and the concentration adjusted to 1.4×10^6 cells/ml in HBSS (Hanks Balanced Salt solution) (w Ca^2+, Mg^2+) containing 0.1% BSA (Bovine Serum Albumin) and 5 mM glucose just prior to assay initiation. Titrated reference and test compounds were pre-mixed with HE (Hydroethidine) (10 μM final assay concentration) before addition to 96-well plates containing 2.5×10^5 cells. Following 40 min incubation at RT, changes in the respiratory burst was estimated by measuring fluorescence at 579 nm (excitation: 485 nm) using an Envision plate reader.
Test compound titration curves were fitted to a four-parameter sigmoidal curve after normalizing the effect of the test compound to the effect of the positive control (5×10^−7 M PEP0005). Rel EC50 denotes the concentration of test compound producing an effect that is midway between the fitted top and bottom. Abs EC50 is the concentration of test compound that provokes a response corresponding to 50% of the maximal effect associated with the positive control (5×10^−7 M PEP0005).

Setting [3] is: HEKa, 6 h, read-out: HeKa cytokine release (IL-8) Rel EC50 range.
Where [4] appears, read: HeKa cells, 6 h at 37° C., MSD IL-8, normalized to 1.5×10^−7 M PEP0005, read-out: HeKa cytokine release (IL-8) Rel EC50 range.
[5] abbreviates: HeLa cells, 30 min at 37° C., PrestoBlue, AbsEC50, normalized to 4 10^−4 M PEP0005/ingenol mebutate.
Setting [6] is: PMNs, 40 min at RT, hydroethidine fluorescence, normalized to 5×10^−7 M PEP0005.

The EC50 is the concentration needed to bring the measured effect to its halfway point. With `CCC(CC)C(=O)O[C@H]1C(C)=C[C@]23C(=O)[C@@H](C=C(CO)[C@@H](O)[C@]12O)[C@H]1[C@@H](C[C@H]3C)C1(C)C` [Compound 109, Ingenol 3-(2-ethyl-butanoate)], the EC50 is less than 20 nM in test [1] (setting [3]), 150000 to 350000 nM with HeLa cells (HeLa) and less than 20 nM in test [2].

On to `C/C=C(\C)C(=O)O[C@H]1C(C)=C[C@]23C(=O)[C@@H](C=C(CO)[C@@H](O)[C@]12O)[C@H]1[C@@H](C[C@H]3C)C1(C)C` [Compound 111, Ingenol 3-tiglate], for which the figures for the half-maximal effective concentration (EC50) (in test [1] (setting [4]); in the test on HeLa cells (setting [5]); in test [2] (setting [6])) were 20 to 100 nM, less than 350000 nM and less than 20 nM, respectively.

For `CC1=C[C@]23C(=O)[C@@H](C=C(CO)[C@@H](O)[C@]2(O)[C@H]1OC(=O)Cc1ccccc1)[C@H]1[C@@H](C[C@H]3C)C1(C)C` [Compound 112, Ingenol 3-(phenyl-acetate)], the EC50 was greater than 100 nM in test [1] (setting [4]), 150000 to 350000 nM in the test with HeLa cells (setting [5]) and less than 20 nM in test [2] (setting [6]).

For the molecule `CC1=C[C@]23C(=O)[C@@H](C=C(CO)[C@@H](O)[C@]2(O)[C@H]1OC(=O)C(C)C1CCCCC1)[C@H]1[C@@H](C[C@H]3C)C1(C)C` (stereo partly drawn) [Compound 114, Ingenol 3-(2-cyclohexylpropanoate)], the figures for the EC50 (in test [1] (setting [3]); in the test with HeLa cells (HeLa); in test [2]) were less than 20 nM, 150000 to 350000 nM and less than 20 nM, respectively.

With `CO/N=C(\C(=O)O[C@H]1C(C)=C[C@]23C(=O)[C@@H](C=C(CO)[C@@H](O)[C@]12O)[C@H]1[C@@H](C[C@H]3C)C1(C)C)c1ccccc1` [Compound 115, Ingenol 3-((2Z)-2-methoxyimino-2-phenyl-acetate)], the results for the EC50 (in test [1] (setting [3]); with HeLa cells (HeLa); in test [2]) were less than 20 nM, less than 150000 nM and 20 to 100 nM, respectively.

Regarding `CC1=C[C@]23C(=O)[C@@H](C=C(CO)[C@@H](O)[C@]2(O)[C@H]1OC(=O)/C(C)=C\c1ccc(C)cc1)[C@H]1[C@@H](C[C@H]3C)C1(C)C` [Compound 117, Ingenol 3-((Z)-2-methyl-3-(p-tolyl)prop-2-enoate)], the EC50 is less than 20 nM in test [1] (setting [3]), less than 150000 nM in the test with HeLa cells (HeLa) and less than 20 nM in test [2].

Consider `C/C=C(/C(=O)O[C@H]1C(C)=C[C@]23C(=O)[C@@H](C=C(CO)[C@@H](O)[C@]12O)[C@H]1[C@@H](C[C@H]3C)C1(C)C)c1ccccc1` [Compound 118, Ingenol 3-((E)-2-phenylbut-2-enoate)], for which the EC50 in test [1] (setting [3]) was less than 20 nM; in the test with HeLa cells (HeLa), less than 150000 nM; in test [2] it was less than 20 nM.

Consider `CC1=C[C@]23C(=O)[C@@H](C=C(CO)[C@@H](O)[C@]2(O)[C@H]1OC(=O)C(c1ccccc1)c1ccccc1)[C@H]1[C@@H](C[C@H]3C)C1(C)C` [Compound 119, Ingenol 3-(2,2-diphenylacetate)], for which the EC50 in test [1] (setting [3]) was less than 20 nM; with HeLa cells (HeLa) it was less than 150000 nM; in test [2] it was less than 20 nM.

In the case of `CC1=C[C@]23C(=O)[C@@H](C=C(CO)[C@@H](O)[C@]2(O)[C@H]1OC(=O)C(=O)N(C)c1ccccc1)[C@H]1[C@@H](C[C@H]3C)C1(C)C` [Compound 121, Ingenol 3-(2-(methyl(phenyl)amino)-2-oxo-acetate)], the EC50 was greater than 100 nM in test [1] (setting [3]), less than 350000 nM in the test with HeLa cells (HeLa) and 20 to 100 nM in test [2].

For the molecule `C/C=C(/C)C(=O)O[C@H]1C(C)=C[C@]23C(=O)[C@@H](C=C(CO)[C@@H](O)[C@]12O)[C@H]1[C@@H](C[C@H]3C)C1(C)C` [PEP005, Ingenol-3-angelate, reference compound], the EC50 in test [1] (setting [4]) is less than 20 nM; with HeLa cells (setting [5]) it was 150000 to 350000 nM; in test [2] (setting [6]), less than 20 nM.
